Earlier results, collected in patent publication US20040228830A1 (Collegium Pharmaceutical, Inc., priority 2003, published 2004).

Tests used:
uptake of dopamine = uptake of dopamine (Homo sapiens, UniProt Q01959)
[1] = after one week of dose escalation
[2] = intravenous, 10 patients
[3] = metabolism in the liver
[4] = 75-100 mg/day twice daily for 8 weeks, elderly patients with depression
[5] = 200 mg/day
[6] = human, in vivo
[7] = test system: beta adrenoceptors in rat cortex; details: after chronic administration

Chain of uptake of dopamine (Q01959 whole entry): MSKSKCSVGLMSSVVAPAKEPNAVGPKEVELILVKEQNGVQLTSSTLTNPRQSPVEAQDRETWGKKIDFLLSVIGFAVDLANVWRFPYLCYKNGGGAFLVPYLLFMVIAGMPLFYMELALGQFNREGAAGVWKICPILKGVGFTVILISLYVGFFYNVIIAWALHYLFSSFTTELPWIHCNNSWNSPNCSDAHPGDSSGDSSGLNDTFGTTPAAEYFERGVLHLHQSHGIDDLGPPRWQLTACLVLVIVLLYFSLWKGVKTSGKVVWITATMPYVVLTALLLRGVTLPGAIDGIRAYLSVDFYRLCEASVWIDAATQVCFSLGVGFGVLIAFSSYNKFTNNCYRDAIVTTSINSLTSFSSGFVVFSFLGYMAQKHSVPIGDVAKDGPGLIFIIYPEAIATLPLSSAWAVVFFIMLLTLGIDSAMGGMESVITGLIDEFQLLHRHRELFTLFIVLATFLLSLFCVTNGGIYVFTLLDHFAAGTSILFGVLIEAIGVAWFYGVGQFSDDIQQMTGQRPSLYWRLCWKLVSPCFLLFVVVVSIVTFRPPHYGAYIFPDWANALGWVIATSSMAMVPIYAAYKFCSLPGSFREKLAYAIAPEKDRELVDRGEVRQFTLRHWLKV

**Q.** Which results are given for `CCN(CC)C(=O)C1(c2ccccc2)CC1CN` (stereo not shown) [milnacipran, Milnacipran]?
**A.** effect on the uptake of dopamine (uptake of dopamine): does not affect; most commonly reported reason for discontinuation of treatment because of adverse effects [1]: nausea and vomiting; patients reporting transient nausea [2]: five; number of chemically identified metabolites [3]: ten; only adverse event reported more frequently for milnacipran recipients than for imipramine recipients [4]: nausea; antidepressant efficacy versus lower doses [5]: superior to the lower doses; toxicity in humans [6]: non-toxic; most common dose-related side effect reported by patients (four weeks dose escalation): nausea; pain improvement (twice-a-day administration of immediate release formulation, fibromyalgia): statistically superior to that of placebo treatment; effect on the number of beta adrenoceptors in rat cortex [7]: does not affect
